Data published in ChEMBL document CHEMBL1132083, “Switching androgen receptor antagonists to agonists by modifying C-ring substituents on piperidino[3,2-g]quinolinone” (Bioorg Med Chem Lett, 1999).

How the values were obtained:
Androgen receptor [1] = molecular target: T1, Androgen receptor (Homo sapiens, UniProt P10275)
T1 sequence (P10275 whole entry): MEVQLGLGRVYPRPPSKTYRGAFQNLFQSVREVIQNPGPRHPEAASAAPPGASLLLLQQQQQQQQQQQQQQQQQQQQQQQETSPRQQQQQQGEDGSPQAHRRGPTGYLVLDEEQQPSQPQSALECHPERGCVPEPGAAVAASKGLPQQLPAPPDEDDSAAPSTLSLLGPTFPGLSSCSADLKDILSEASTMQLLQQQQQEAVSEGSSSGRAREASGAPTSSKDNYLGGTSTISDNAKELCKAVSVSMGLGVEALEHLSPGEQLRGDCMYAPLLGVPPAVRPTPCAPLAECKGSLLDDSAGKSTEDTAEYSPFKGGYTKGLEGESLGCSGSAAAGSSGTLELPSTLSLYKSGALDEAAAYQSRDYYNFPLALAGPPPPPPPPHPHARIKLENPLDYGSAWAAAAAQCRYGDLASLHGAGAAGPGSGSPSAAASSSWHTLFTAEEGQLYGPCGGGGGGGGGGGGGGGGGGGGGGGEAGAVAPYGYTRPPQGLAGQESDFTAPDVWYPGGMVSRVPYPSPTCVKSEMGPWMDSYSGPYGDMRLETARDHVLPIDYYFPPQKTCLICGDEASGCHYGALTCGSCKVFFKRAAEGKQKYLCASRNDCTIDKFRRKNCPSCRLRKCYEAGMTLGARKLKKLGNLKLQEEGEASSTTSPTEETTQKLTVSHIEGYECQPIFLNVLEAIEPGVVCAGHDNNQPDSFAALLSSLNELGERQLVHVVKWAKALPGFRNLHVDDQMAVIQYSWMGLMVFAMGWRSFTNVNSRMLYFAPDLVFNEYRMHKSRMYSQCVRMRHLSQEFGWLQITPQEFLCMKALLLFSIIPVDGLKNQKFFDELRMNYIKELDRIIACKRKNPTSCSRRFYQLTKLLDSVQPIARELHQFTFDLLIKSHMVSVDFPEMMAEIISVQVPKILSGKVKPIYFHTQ
Description: (§1) Agonistic activity against human androgen receptor (hAR) expressed in CV-1 cell lines

Androgen receptor [2] = molecular target: T1, Androgen receptor; remark: listed apart in the source
Description: Binding affinity towards human androgen receptor (hAR), using dihydrotestosterone as radioligand for competitive binding assay

Androgen receptor [3] = molecular target: T1, Androgen receptor; details: cv-1
Description: (§2) Antagonistic activity against human androgen receptor (hAR) expressed in CV-1 cell lines

Androgen receptor [4] = molecular target: T1, Androgen receptor; remark: listed apart in the source
Description: as §2

Androgen receptor [5] = molecular target: T1, Androgen receptor; experiment: Antagonistic activity against human androgen receptor (hAR) expressed in CV-1 cells; no data; type: functional, cell-based
[6] = molecular target: T2, Androgen receptor (Homo sapiens) (UniProt P10275); experiment: Antagonistic activity against human androgen receptor (hAR); no data; type: functional
T2 sequence (whole entry): T1 sequence (P10275 whole entry)

Androgen receptor [7] = molecular target: T1, Androgen receptor; details: cv-1; remark: listed apart in the source
Description: as §1

| Compound | EC50 (Androgen receptor [1]) [nM] | Ki (Androgen receptor [2]) [nM] | IC50 (Androgen receptor [3]) [nM] | IC50 (Androgen receptor [4]) [nM] | IC50 (Androgen receptor [5]) [nM] | Efficacy [6] [%] | EC50 (Androgen receptor [7]) [nM] |
| --- | --- | --- | --- | --- | --- | --- | --- |
| CC[C@H]1Cc2cc3c(C(F)(F)F)cc(O)nc3cc2N[C@@H]1C | 9 | 11 | < 10000 | – | – | – | – |
| CC[C@H]1Nc2cc3nc(O)cc(C(F)(F)F)c3cc2C[C@H]1C | 2470 | 11 | – | 15 | – | – | – |
| CC[C@H]1Nc2cc3[nH]c(=O)cc(C(F)(F)F)c3cc2C[C@@H]1C | 1670 | 12 | – | 11 | – | – | – |
| CC[C@H]1C[C@@H](C)Nc2cc3nc(O)cc(C(F)(F)F)c3cc21 | 66 | 23 | – | – | < 10000 | < 20 | – |
| CCC[C@@H]1CCc2cc3c(C(F)(F)F)cc(O)nc3cc2N1 | – | 24 | – | 32 | – | – | < 10000 |
| C[C@H]1Nc2cc3nc(O)cc(C(F)(F)F)c3cc2CC1(C)C | – | 82 | – | 24 | – | – | < 10000 |
| C[C@@H]1Cc2cc3c(C(F)(F)F)cc(O)nc3cc2N[C@@H]1C | 34 | 15 | – | 74 | – | – | – |
| C[C@H]1Cc2cc3c(C(F)(F)F)cc(O)nc3cc2N[C@@H]1C | – | 22 | – | 33 | – | – | < 10000 |
| C[C@@H]1C[C@H](C)c2cc3c(C(F)(F)F)cc(O)nc3cc2N1 | 59 | 6 | – | 15 | – | – | – |
| CC[C@@H]1CCc2cc3c(C(F)(F)F)cc(O)nc3cc2N1 | – | – | – | 11 | – | – | < 10000 |
| CC[C@H]1Cc2cc3c(C(F)(F)F)cc(=O)[nH]c3cc2N[C@@H]1CC | 3 | 16 | < 10000 | – | – | – | – |
| CC[C@@H]1Cc2cc3c(C(F)(F)F)cc(=O)[nH]c3cc2N[C@@H]1C | 10 | 15 | < 10000 | – | – | – | – |
| CC[C@@H]1C[C@H](CC)c2cc3c(C(F)(F)F)cc(O)nc3cc2N1 | 32 | 9 | – | – | < 10000 | < 20 | – |
| CC(C)(O)C(=O)Nc1ccc([N+](=O)[O-])c(C(F)(F)F)c1O | – | 27 | – | 15 | – | – | < 10000 |
| C[C@@H]1CCc2cc3c(C(F)(F)F)cc(=O)[nH]c3cc2N1 | 21 | 7 | – | 19 | – | – | – |
| CC[C@H]1Nc2cc3[nH]c(=O)cc(C(F)(F)F)c3cc2CC1(C)C | – | 50 | – | 42 | – | – | < 10000 |
| CC[C@@H]1C[C@H](C)c2cc3c(C(F)(F)F)cc(O)nc3cc2N1 | 119 | 21 | – | 137 | – | – | – |
| CC[C@H]1Nc2cc3nc(O)cc(C(F)(F)F)c3cc2CC1(CC)CC | – | 42 | – | 48 | – | – | < 10000 |
| CC[C@@H]1Cc2cc3c(C(F)(F)F)cc(=O)[nH]c3cc2N[C@@H]1CC | 20 | 29 | < 10000 | – | – | – | – |
| CC(C)[C@@H]1CCc2cc3c(C(F)(F)F)cc(=O)[nH]c3cc2N1 | – | 109 | – | 25 | – | – | < 10000 |
